Laboratory results taken from the NIST ThermoML archive (doi:10.1021/acs.jced.5b00944).

Experiments:
[1] = for speed of sound / mass density: 100 kPa, Liquid; for speed of sound: Sing-around technique in a fixed-path interferometer; for mass density: Vibrating tube method; for surface tension liquid-gas: Capillary rise
[2] = xn = mol fraction of the nth substance listed; details: x1 = 1; for surface tension liquid-gas: Capillary rise; for speed of sound: Sing-around technique in a fixed-path interferometer

CCCC[N+]1(C)CCCC1.N#CN=C=[N-] [1-butyl-1-methylpyrrolidinium dicyanamide]
[1]
Details | mass density [kg/m3] | speed of sound [m/s]
288.15 K | 1019.11 | 1834.4
298.15 K | 1013.48 | 1809.6
308.15 K | 1007.82 | 1785.2
318.15 K | 1002.33 | 1761
333.15 K | 994.14 | 1724.7

O [water]
[1]
Details | speed of sound [m/s] | surface tension liquid-gas [mN/m]
297.7 K | – | 71.9
304.8 K | – | 70.6
313.2 K | – | 69.5
318.15 K | 1536.7 | –
324.1 K | – | 67.6
333.15 K | 1551.3 | –

O [water] + CCCC[N+]1(C)CCCC1.N#CN=C=[N-]
[2]
Details | surface tension liquid-gas [mN/m]
297.7 K | 71.9
304.8 K | 70.6
313.2 K | 69.5
324.1 K | 67.6

[2], 100 kPa, Liquid
Details | speed of sound [m/s]
318.15 K | 1536.7
333.15 K | 1551.3

Details | mass density [kg/m3]
[2], 333.15 K, 100 kPa, Liquid, Vibrating tube method | 983.19
